Reference: patent US11666600B2, “Methods for culturing and/or differentiating hematopoietic stem cells into progenitors and uses thereof” (HEMA-QUEBEC, priority 2015, dated 2023)
Values joined by “and” are separate entries in the source; they are usually repeats but may differ in a detail not shown here. Equal values may be shown once.

Experiments:
[1] = system: CD34+ cells from human umbilical cord blood; experiment: Culture of cord blood CD34+ cells towards the megakaryocytic lineage (StemSpan ACF + BS1), flow cytometry; assay type: cell-based; conditions: for Percentage of cells bearing CD34+ / Percentage of cells bearing CD34+/CD41+ / Percentage of cells bearing CD34+/CD41− / Percentage of cells bearing CD41+ / Percentage of cells bearing CD41+/CD42+ / Percentage of cells bearing CD42+ / Percentage of cells bearing CD45RA+ / Percentage of cells bearing CD235+: ACF + BS1
Description: CD34+ cells were isolated from human umbilical cord blood by positive selection according to standard procedures. Purified CD34+ cells from either single units or pooled from several units of cord blood were seeded in 1 mL of the appropriate culture medium in 24-well plates at a density of approximately 10^5 cells/mL. Cells were maintained at a density of 10^5-10^6 cells/mL throughout the culture by dilution and/or medium replacement.
For culture and differentiation towards the megakaryocytic lineage, purified CD34+ cells were cultured in StemSpan™ ACF medium ([…]™ Technologies, Vancouver, BC, Canada) supplemented with antibiotics and the “BS1” cytokine cocktail described previously (Cortin et al, 2005), and cell counts were performed on days 6, 10, and 14.
Cell counts and viability were measured using the NucleoCounter NC-250™ Viability and Cell Count Assay system (ChemoMetec Inc., Davis, Calif.), according to the manufacturer's instructions.
Cell phenotypes were determined by flow cytometry on the indicated days using the following panel of labeled primary antibodies: CD34-FITC, CD45RA-APC, CD41a-APC, CD42b-PE, and CD235-PE.
CD34+ cells were isolated and cultured for differentiation towards the megakaryocytic lineage as generally described in Example 1.2. […] Flow cytometry was used to monitor the expansion of CD34+/CD41+ MKP cells over time, as described in Example 1.3.
More thorough cell phenotypic profiles of the CD34+ cells isolated and cultured in Example 2 were determined on days 6, 10 and 14 by flow cytometry as described in Example 1.3.

[2] = system: Human bone marrow CD34+ cells; experiment: Expansion of CD34+/CD41+ megakaryocytic progenitors from bone marrow CD34+ cells; assay type: cell-based; conditions: 39° C. + PIC 35 nM; 14 days; SFEM + BS1; FIG. 6
Description: Human bone marrow and G-CSF-mobilized peripheral blood CD34+ cells were purchased from AllCells.
Human CD34+-enriched cells (purity 90%) were seeded in 24-well plates at 100 000 cells/mL in expansion medium consisting of either (1) StemSpan™ ACF (ACF; […] Technologies) supplemented with the OMPC cytokine cocktail (Robert et al., 2011), or (2) StemSpan™ SFEM ([…] Technologies) supplemented with the BS1 megakaryocyte expansion and differentiation cocktail (Cortin et al., 2005). OMPC consists of 35 ng/mL thrombopoietin (TPO; Feldan Therapeutics), 10 ng/mL stem cell factor (SCF; Peprotech), and 11 ng/mL human FMS-like tyrosine kinase 3 ligand (FLT3, Peprotech). […]
Cellular counts and viability were determined by adding Solution 18 (Acridine Orange and DAPI solution, ChemomMetec) and using NucleoCounter™ NC-250 for detection (ChemomMetec).
For cells expanded in conditions favoring differentiation towards the MK lineage, surface markers were detected using the following antibodies: CD34-FITC, CD41a-APC and CD42b-PE. […] All samples were analyzed on an Accuri™ C6 flow cytometer (BD Biosciences), and raw data were analyzed with FCS Express 5 Flow Research Edition software from at least 15 000 viable cell events acquired for each sample. […]
Cellular counts and viability were determined as described in Example 6.5.

[3] = system: CD34+ cells from human umbilical cord blood; experiment: CFU-MK assay (Megacult C) on cells grown in ACF + BS1; assay type: cell-based; conditions: 39° C. + PIC 35 nM; FIG. 2
Description: Aliquots of cells grown in StemSpan™ ACF+BS1 culture medium were collected on the indicated days, and CFU-MK were determined using the Megacult™ C kit from […]™ Technologies, according to the manufacturer's instructions.

[4] = system: CD34+/CD45RA− mobilized peripheral blood cells; conditions: Fares et al., 2014; cited from earlier work

Cl.Cn1nnc(-c2ccc3c(c2)[nH]c2nc(Cc4ccccc4)nc(N[C@H]4CC[C@H](N)CC4)c23)n1 [PIC, (1r,4r)-N1-(2-benzyl-7-(2-methyl-2H-tetrazol-5-yl)-9H-pyrimido[4,5-b]indol-4-yl)cyclohexane-1,4-diamine hydrochloride]
purity of CD34+/CD41+ cells ([1]; 39° C. + PIC 35 nM, data not shown): above 40%
Percentage of cells bearing CD34+ ([1]; Day 6, 37° C. + PIC 35 nM): 98.38%
Percentage of cells bearing CD34+/CD41+ ([1]; Day 6, 37° C. + PIC 35 nM): 29.54%
Percentage of cells bearing CD34+/CD41− ([1]; Day 6, 37° C. + PIC 35 nM): 68.55%
Percentage of cells bearing CD41+ ([1]; Day 6, 37° C. + PIC 35 nM): 29.27%
Percentage of cells bearing CD41+/CD42+ ([1]; Day 6, 37° C. + PIC 35 nM): 1.71%
Percentage of cells bearing CD42+ ([1]; Day 6, 37° C. + PIC 35 nM): 2.48%
Percentage of cells bearing CD45RA+ ([1]; Day 6, 37° C. + PIC 35 nM): 71.55%
Percentage of cells bearing CD235+ ([1]; Day 6, 37° C. + PIC 35 nM): 11.67%
Percentage of cells bearing CD34+ ([1]; Day 6, 39° C. + PIC 35 nM): 97.19%
Percentage of cells bearing CD34+/CD41+ ([1]; Day 6, 39° C. + PIC 35 nM): 48.85%
Percentage of cells bearing CD34+/CD41− ([1]; Day 6, 39° C. + PIC 35 nM): 48.02%
Percentage of cells bearing CD41+ ([1]; Day 6, 39° C. + PIC 35 nM): 49.84%
Percentage of cells bearing CD41+/CD42+ ([1]; Day 6, 39° C. + PIC 35 nM): 7.95%
Percentage of cells bearing CD42+ ([1]; Day 6, 39° C. + PIC 35 nM): 8.31%
Percentage of cells bearing CD45RA+ ([1]; Day 6, 39° C. + PIC 35 nM): 58.97%
Percentage of cells bearing CD235+ ([1]; Day 6, 39° C. + PIC 35 nM): 19.51%
Percentage of cells bearing CD34+ ([1]; Day 10, 37° C. + PIC 35 nM): 84.39%
Percentage of cells bearing CD34+/CD41+ ([1]; Day 10, 37° C. + PIC 35 nM): 20.21%
Percentage of cells bearing CD34+/CD41− ([1]; Day 10, 37° C. + PIC 35 nM): 64.40%
Percentage of cells bearing CD41+ ([1]; Day 10, 37° C. + PIC 35 nM): 24.84%
Percentage of cells bearing CD41+/CD42+ ([1]; Day 10, 37° C. + PIC 35 nM): 1.30%
Percentage of cells bearing CD42+ ([1]; Day 10, 37° C. + PIC 35 nM): 2.55%
Percentage of cells bearing CD45RA+ ([1]; Day 10, 37° C. + PIC 35 nM): 76.43%
Percentage of cells bearing CD235+ ([1]; Day 10, 37° C. + PIC 35 nM): 7.45%
Percentage of cells bearing CD34+ ([1]; Day 10, 39° C. + PIC 35 nM): 87.29%
Percentage of cells bearing CD34+/CD41+ ([1]; Day 10, 39° C. + PIC 35 nM): 67.10%
Percentage of cells bearing CD34+/CD41− ([1]; Day 10, 39° C. + PIC 35 nM): 21.37%
Percentage of cells bearing CD41+ ([1]; Day 10, 39° C. + PIC 35 nM): 73.31%
Percentage of cells bearing CD41+/CD42+ ([1]; Day 10, 39° C. + PIC 35 nM): 17.09%
Percentage of cells bearing CD42+ ([1]; Day 10, 39° C. + PIC 35 nM): 17.30%
Percentage of cells bearing CD45RA+ ([1]; Day 10, 39° C. + PIC 35 nM): 46.94%
Percentage of cells bearing CD235+ ([1]; Day 10, 39° C. + PIC 35 nM): 14.40%
Percentage of cells bearing CD34+ ([1]; Day 14, 37° C. + PIC 35 nM): 69.53%
Percentage of cells bearing CD34+/CD41+ ([1]; Day 14, 37° C. + PIC 35 nM): 11% and 11.01%
Percentage of cells bearing CD34+/CD41− ([1]; Day 14, 37° C. + PIC 35 nM): 54.97%
Percentage of cells bearing CD41+ ([1]; Day 14, 37° C. + PIC 35 nM): 23.65%
Percentage of cells bearing CD42+ ([1]; Day 14, 37° C. + PIC 35 nM): 3.02%
Percentage of cells bearing CD45RA+ ([1]; Day 14, 37° C. + PIC 35 nM): 61.90%
Percentage of cells bearing CD235+ ([1]; Day 14, 37° C. + PIC 35 nM): 2.90%
Percentage of cells bearing CD34+ ([1]; Day 14, 39° C. + PIC 35 nM): 88.56%
Percentage of cells bearing CD34+/CD41+ ([1]; Day 14, 39° C. + PIC 35 nM): 76.5% and 76.46%
Percentage of cells bearing CD34+/CD41− ([1]; Day 14, 39° C. + PIC 35 nM): 10.25%
Percentage of cells bearing CD41+ ([1]; Day 14, 39° C. + PIC 35 nM): 87.90%
Percentage of cells bearing CD42+ ([1]; Day 14, 39° C. + PIC 35 nM): 27.09%
Percentage of cells bearing CD45RA+ ([1]; Day 14, 39° C. + PIC 35 nM): 27.09%
Percentage of cells bearing CD235+ ([1]; Day 14, 39° C. + PIC 35 nM): 12.61%
Percentage of cells bearing CD41+/CD42+ ([1]; Day 14, 39° C. + PIC 35 nM, hydrochloride): 27% and 27.04%
combined use of mild hyperthermia and PIC on expansion of CD34+/CD41+ cells [2]: synergistic effect
combined effect of mild hyperthermia and PIC on the number of CFU-MK [3]: synergized
expansion of CD34+/CD45RA− mobilized peripheral blood cells (enriched in LT-HSCs) [4]: stimulate expansion
